Data as given in PubChem BioAssay (NCI).
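These data come from cells grown in 96-well plates and exposed to compound for 48 hours at five concentrations. TGI marks complete inhibition of growth.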

Key:
Test in all cases: NCI-60 cell line screen, 48 h
A549 NSCLC = tested on: A549 NSCLC
CAKI-1 renal = tested on: CAKI-1 renal
COLO 205 colon = tested on: COLO 205 colon
HT29 colon = tested on: HT29 colon
K-562 leukemia = tested on: K-562 leukemia
MDA-N = tested on: MDA-N
NCI-H226 lung = tested on: NCI-H226 lung
RPMI-8226 leukemia = tested on: RPMI-8226 leukemia
SF-539 CNS = tested on: SF-539 CNS
SR leukemia = tested on: SR leukemia
T-47D breast = tested on: T-47D breast
TK-10 renal = tested on: TK-10 renal
UO-31 renal = tested on: UO-31 renal
LOX IMVI melanoma = tested on: LOX IMVI melanoma
MALME-3M melanoma = tested on: MALME-3M melanoma
SK-MEL-2 melanoma = tested on: SK-MEL-2 melanoma
SK-MEL-28 melanoma = tested on: SK-MEL-28 melanoma
SNB-19 CNS = tested on: SNB-19 CNS
BT-549 breast = tested on: BT-549 breast

SMILES	TGI (A549 NSCLC) [µM]	TGI (CAKI-1 renal) [µM]	TGI (COLO 205 colon) [µM]	TGI (HT29 colon) [µM]	TGI (K-562 leukemia) [µM]	TGI (MDA-N) [µM]	TGI (NCI-H226 lung) [µM]	TGI (RPMI-8226 leukemia) [µM]	TGI (SF-539 CNS) [µM]	TGI (SR leukemia) [µM]	TGI (T-47D breast) [µM]	TGI (TK-10 renal) [µM]	TGI (UO-31 renal) [µM]	TGI (LOX IMVI melanoma) [µM]	TGI (MALME-3M melanoma) [µM]	TGI (SK-MEL-2 melanoma) [µM]	TGI (SK-MEL-28 melanoma) [µM]	TGI (SNB-19 CNS) [µM]	TGI (BT-549 breast) [µM]
O=C(/C=C\c1ccccc1-c1ccccc1)c1ccccc1	91.9	> 100	> 100	> 100	> 100	> 100	> 100	> 100	> 100	> 100	96	> 100	> 100	–	–	–	–	–	–
C/C1=C\CC[C@@]2(C)O[C@@H]2[C@H]2OC(=O)C(C)C2C[C@H]1O (stereo partly drawn)	> 100	> 100	> 100	> 100	> 100	–	–	> 100	–	> 100	–	> 100	> 100	> 100	> 100	> 100	> 100	> 100	–
CCOC(=O)/C(=C\NC(C)(C)C)c1nc2ccccc2o1	> 100	> 100	55.3	80.8	–	> 100	63.4	50.8	> 100	48.6	–	> 100	–	65.4	85.6	–	> 100	> 100	> 100
CSc1ccc(-c2cc(-c3nc4ccccc4[nH]3)nc3[nH]c(-c4nc5ccccc5[nH]4)cc(=O)c23)cc1	> 100	> 100	> 100	> 100	> 100	–	> 100	> 100	> 100	> 100	> 100	> 100	> 100	> 100	> 100	> 100	–	> 100	> 100
Nc1c(Cl)c([N+](=O)[O-])cc2c1OCCCCO2	> 100	> 100	> 100	> 100	> 100	> 100	> 100	> 100	> 100	> 100	> 100	> 100	> 100	> 100	> 100	> 100	> 100	–	–
O=c1[nH]n(Cc2ccccc2CCl)c2ccc([N+](=O)[O-])cc12	> 100	63.3	62.5	> 100	> 100	> 100	> 100	> 100	> 100	> 100	–	> 100	> 100	> 100	> 100	> 100	> 100	> 100	–
O=C(Nc1ccccc1)C(=O)C(C(=O)c1ccccc1)C(c1ccccc1)c1ccccc1 (stereo not drawn)	> 10	> 10	> 10	> 10	> 10	> 10	–	> 10	–	> 10	> 10	> 10	–	> 10	> 10	–	> 10	–	–
C/C(=N/NC(=S)N1CCCC1)c1cccc(/C(C)=N\NC(=S)N2CCCC2)n1	9.01	3.37	> 100	5.1	> 100	3.89	3.76	18.1	3.72	7.58	–	3.71	2.11	> 100	4.89	4.21	5.09	12.1	5.13
O=C(CCCN1CC=C(n2c(=O)[nH]c3ccccc32)CC1)c1cccs1	> 100	> 100	> 100	> 100	> 100	> 100	> 100	> 100	> 100	> 100	> 100	> 100	> 100	> 100	> 100	> 100	> 100	> 100	–
COc1ccc(C(CC(=O)c2ccccc2)C(=O)c2ccc3c(c2)OCO3)cc1 (stereo not drawn)	> 100	> 100	> 100	–	> 100	> 100	> 100	> 100	–	> 100	> 100	> 100	> 100	–	> 100	> 100	> 100	> 100	–
Cc1ccccc1NC(=O)/C(C#N)=N\Nc1nc[nH]c1C(N)=O	> 100	18.2	> 100	> 100	> 100	> 100	> 100	> 100	–	–	> 100	> 100	> 100	–	> 100	> 100	> 100	> 100	> 100
CCO/C(O)=C(/C(=N)N1CCCC1)C(=O)Nc1ccc(Cl)cc1	> 100	> 100	> 100	> 100	> 100	> 100	> 100	> 100	> 100	–	> 100	> 100	–	> 100	> 100	> 100	> 100	> 100	> 100
O=C(/C=C/c1cccs1)c1ccc(C(=O)/C=C/c2cccs2)cc1	> 100	> 100	> 100	> 100	–	–	> 100	–	> 100	> 100	> 100	> 100	> 100	–	> 100	–	> 100	> 100	> 100
C/C(=C/CNc1ncnc2c1ncn2CCC#N)CO	> 100	> 100	> 100	> 100	> 100	> 100	> 100	> 100	> 100	> 100	> 100	> 100	> 100	> 100	> 100	–	> 100	> 100	–
COc1ccc(-c2cc(-c3ccco3)c(C#N)c(=S)n2C2OC(CO)C(O)C(O)C2O)cc1 (stereo not drawn)	> 100	> 100	> 100	> 100	> 100	> 100	> 100	> 100	> 100	–	–	> 100	> 100	> 100	> 100	> 100	> 100	> 100	> 100
COC(=O)/C(=C/CC(N=C(c1ccccc1)c1ccccc1)C(=O)OC)N=C(c1ccccc1)c1ccccc1 (stereo not drawn)	> 100	> 100	> 100	> 100	> 100	–	–	> 100	–	> 100	–	> 100	> 100	> 100	> 100	> 100	> 100	> 100	–
C=C1CC(COc2ccc3ccc(=O)oc3c2)(c2ccccc2)OC1=O (stereo not drawn)	27.8	2.52	1.79	2.27	2.45	3.85	12.4	0.434	–	> 31	–	2.99	9.76	2.57	6.77	4.18	6.12	28.5	2.95
Cc1ccc(S(=O)(=O)n2cnc(CC(NC(=O)C3CCC(=O)N3C(=O)OCc3ccccc3)C(=O)N3CCCC3C(=O)NN)c2)cc1 (stereo not drawn)	> 100	–	> 100	> 100	> 100	> 100	> 100	> 100	–	> 100	–	> 100	> 100	–	> 100	> 100	> 100	> 100	> 100
CSC(=N)N1N=C2c3ccccc3CC[C@@H]2[C@@H]1c1ccccc1	34.2	–	26.6	23.6	39.7	–	22.6	35.5	27.2	30.9	–	33.5	22.4	28.5	25.9	29.2	29.8	34	–
CC(Oc1ccc(Cl)cc1Cl)C(=O)NN1C(=O)CSC1c1ccc(Cl)cc1 (stereo not drawn)	> 100	34.2	> 100	> 100	> 100	–	39.2	> 100	43.9	41.3	> 100	> 100	> 100	> 100	–	> 100	> 100	> 100	> 100
O=C(NN1C(=O)c2ccccc2C1=O)c1ccccc1Nc1ccccc1C(=O)NN1C(=O)c2ccccc2C1=O	–	> 100	> 100	> 100	> 100	> 100	> 100	> 100	> 100	> 100	–	> 100	> 100	> 100	> 100	> 100	> 100	> 100	> 100
C[C@@H]1OC2(O)[C@@H]3CCCN3C(=O)N(Cc3ccccc3)N2C1=O (stereo partly drawn)	> 100	> 100	> 100	> 100	–	> 100	> 100	–	> 100	> 100	> 100	> 100	–	> 100	> 100	> 100	> 100	> 100	–
O=C(/C=C/c1ccccc1)CCC1C(=O)NC(=O)NC1=O	> 100	> 100	> 100	> 100	> 100	> 100	> 100	> 100	> 100	–	> 100	> 100	> 100	> 100	> 100	> 100	> 100	> 100	> 100
N#CC(C#N)=C1CCCCc2ccc([N+](=O)[O-])cc21	> 100	> 100	> 100	> 100	> 100	> 100	> 100	87.5	> 100	–	> 100	> 100	> 100	> 100	> 100	> 100	> 100	> 100	> 100
O=c1[nH]c2ccsc2c(=O)n1COCc1ccccc1	> 100	> 100	> 100	> 100	> 100	> 100	> 100	> 100	> 100	> 100	–	> 100	> 100	> 100	> 100	> 100	> 100	> 100	> 100
CC1=CCC[C@]2(C)C1=CC(=O)O[C@H]2c1ccoc1	> 100	> 100	> 100	> 100	> 100	> 100	> 100	> 100	–	> 100	> 100	> 100	> 100	> 100	> 100	> 100	> 100	> 100	–
C=CC1(c2ccc(Br)cc2)OCCCO1	> 100	–	> 100	> 100	> 100	> 100	> 100	> 100	> 100	> 100	> 100	> 100	> 100	> 100	> 100	> 100	> 100	> 100	–
CC1=[N+]([O-])C(C)(C)N(O)C1(C)C	> 100	–	> 100	> 100	> 100	> 100	> 100	> 100	> 100	> 100	> 100	> 100	> 100	> 100	> 100	> 100	> 100	> 100	–
